Patent US6153756A, “Soluble prodrugs of paclitaxel” (priority 1997, dated 2000)
Where “and” joins values, the source holds several entries; their conditions need not be identical. Identical values can stand only once. Counter-ions that a name gives are not always drawn. Like-named read-outs stand apart in the source and are kept apart here.

Experiments:
[1] = Stability of paclitaxel 2'-methylpyridinium acetate (HPLC); type: physicochemical
Protocol: The onium salt paclitaxel-2'-MPA was prepared by the method of Nicolaou et al., Angew. Chim. Int. Engl., 33:1583-1587 ([…]). A 2.40 mg/ml solution of the paclitaxel-2'-MPA was prepared by dissolving the salt (10.2 mg) in a solution of water (3.024 ml) and polyethylene glycol (1.234 ml). Samples of this solution were frozen. The frozen samples were slowly warmed to room temperature and homogenized with CH3 CN (50 μl). An aliquot (50 μl) was removed and diluted to a final volume of 200 μl with deionized H2 O and analyzed via HPLC (20 μl injection).
Analysis conditions were as follows: […]
Mobile phase: 50% MeOH/80 mM NH4 OAc

[2] = Stability of 2'-MPA after HPLC purification in presence of excess acetate; type: physicochemical; settings: excess acetate ion, upon concentration of HPLC effluent, to paclitaxel
[3] = Solubility of 2'-MPM in deionized water; type: physicochemical
Protocol: Solubility: Deionized water (0.5 ml) was added to three samples of the 2'-MPM (1.54 mg, 0.97 mg and 0.80 mg) and the flask sonicated for approximately one (1) minute.

[4] = Extraction of 2'-MPM from water into CH2Cl2; type: physicochemical; settings: three samples (1.2, 1.0, 0.98 mg) in water (1 ml) stirred with CH2Cl2 (1 ml)
Protocol: Extraction: Three samples (1.2,1.0 and 0.98 mg) were dissolved in water (1 ml) and vigorously stirred with CH2 Cl2 (1 ml). The organic phase was transferred to a clean, tared vial and concentrated in vacuo. The residue was weighed and compared to the theoretical input to gauge the effectiveness of the extraction procedure. Average return for this extraction was about 44% of theoretical.

[5] = Aqueous stability of 2'-MPM in H2O and 0.2M NaCl; type: physicochemical
Protocol: Aqueous Stability: The stability of the prodrug in H2 O and 0.2M NaCl was examined at both room temperature and under refrigerated conditions. Samples in H2 O (0.54 mg in 2 ml) and NaCl (0.57 mg in 2 ml) at room temperature were examined at two minute time intervals (0 through 12 minutes), 2 hours and 24 hours. […] At 4° C. the product concentration was unchanged at 24 and 48 hours but decreased to 90% after 72 hours. […] At 4° C. the product concentration was unchanged at 24 hours, was 91% at 48 hours and was 88% at 72 hours.

[6] = Water solubility of paclitaxel and of its prodrugs (general statements); type: physicochemical; settings: listed advantage of the novel salts
[7] = tested on: neoplasms including breast; settings: several types of neoplasms including breast; cited from earlier work
[8] = freshly prepared solution, 0.53 mg/ml in CH3CN

## CC(=O)O[C@H]1C(=O)[C@@]2(C)[C@H]([C@H](OC(=O)c3ccccc3)[C@]3(O)C[C@H](OC(=O)[C@H](Oc4cccc[n+]4C)[C@@H](NC(=O)c4ccccc4)c4ccccc4)C(C)=C1C3(C)C)[C@]1(OC(C)=O)CO[C@@H]1C[C@@H]2O [2'-MPA, Paclitaxel 2'-Methylpyridinium Acetate]
[1]; 4° C., 1 Hour
  Paclita. % (paclitaxel in 2'-MPA sample): 15%
  Unkno. % (unknown in 2'-MPA sample): No peak eluted
[1]; 4° C., 2 Weeks
  Paclita. % (paclitaxel in 2'-MPA sample): 9%
  Unkno. % (unknown in 2'-MPA sample): 10%
[1]; 4° C., 6 Hours
  Paclita. % (paclitaxel in 2'-MPA sample): 11%
  Unkno. % (unknown in 2'-MPA sample): 14%
[1]; 4° C., 18 Hours
  Paclita. % (paclitaxel in 2'-MPA sample): 10%
  Unkno. % (unknown in 2'-MPA sample): 17%
[1]; 4° C., 42 Hours
  Paclita. % (paclitaxel in 2'-MPA sample): 9%
  Unkno. % (unknown in 2'-MPA sample): 12%
[1]; 4° C., 66 Hours
  Paclita. % (paclitaxel in 2'-MPA sample): 11%
  Unkno. % (unknown in 2'-MPA sample): 16%
[1]; Room Temperature, 1 Hour
  Paclita. % (paclitaxel in 2'-MPA sample): 14%
  Unkno. % (unknown in 2'-MPA sample): 8%
[1]; Room Temperature, 6 Hours
  Paclita. % (paclitaxel in 2'-MPA sample): 14%
  Unkno. % (unknown in 2'-MPA sample): 8%
[1]; Room Temperature, 42 Hours
  Paclita. % (paclitaxel in 2'-MPA sample): 17%
  Unkno. % (unknown in 2'-MPA sample): 10%
[1]; Room Temperature, 66 Hours
  Paclita. % (paclitaxel in 2'-MPA sample): 13%
  Unkno. % (unknown in 2'-MPA sample): 8%
[1]; Room Temperature, 90 Hours
  Paclita. % (paclitaxel in 2'-MPA sample): 15%
  Unkno. % (unknown in 2'-MPA sample): 12%
[1]; [8]
  2'-MPA peak: 75%
  Paclitaxel peak in 2'-MPA sample: 15%
  Unknown peak in 2'-MPA sample: 10%
[1]; water/polyethylene glycol, 4° C., 1 Hour, read-out: 2'-MPA %
  remaining at 1 h: 85%
[1]; water/polyethylene glycol, 4° C., 2 Weeks, read-out: 2'-MPA %
  remaining at 336 h: 79%
[1]; water/polyethylene glycol, 4° C., 6 Hours, read-out: 2'-MPA %
  remaining at 6 h: 75%
[1]; water/polyethylene glycol, 4° C., 18 Hours, read-out: 2'-MPA %
  remaining at 18 h: 73%
[1]; water/polyethylene glycol, 4° C., 42 Hours, read-out: 2'-MPA %
  remaining at 42 h: 79%
[1]; water/polyethylene glycol, 4° C., 66 Hours, read-out: 2'-MPA %
  remaining at 66 h: 73%
[1]; water/polyethylene glycol, Room Temperature, 1 Hour, read-out: 2'-MPA %
  remaining at 1 h: 78%
[1]; water/polyethylene glycol, Room Temperature, 6 Hours, read-out: 2'-MPA %
  remaining at 6 h: 78%
[1]; water/polyethylene glycol, Room Temperature, 18 Hours, peaks of paclitaxel and unknown coeluted, read-out: 2'-MPA %
  remaining at 18 h: 69%
[1]; water/polyethylene glycol, Room Temperature, 42 Hours, read-out: 2'-MPA %
  remaining at 42 h: 73%
[1]; water/polyethylene glycol, Room Temperature, 66 Hours, read-out: 2'-MPA %
  remaining at 66 h: 79%
[1]; water/polyethylene glycol, Room Temperature, 90 Hours, read-out: 2'-MPA %
  remaining at 90 h: 73%
[2]
  stability on HPLC purification: decomposes rapidly

## CC(=O)O[C@H]1C(=O)[C@@]2(C)[C@H]([C@H](OC(=O)c3ccccc3)[C@]3(O)C[C@H](OC(=O)[C@H](Oc4cccc[n+]4C)[C@@H](NC(=O)c4ccccc4)c4ccccc4)C(C)=C1C3(C)C)[C@]1(OC(C)=O)CO[C@@H]1C[C@@H]2O [2'-MPM, Paclitaxel-2'-Methylpyridinium Mesylate]
[3]; deionized water
  upper limit of solubility: has not been attained as yet
[3]; deionized water 0.5 ml, sonicated approx. 1 min
  Solubility: sample amount for which solution was attained: 0.97 mg and 0.80 mg
[3]; largest sample (1.54 mg), on top of 0.5 ml deionized water
  Solubility: additional water required to provide a free-flowing solution: 0.1 mL
[4]
  Average return for extraction into CH2Cl2: about 44 % of theoretical
[5]; 0.2M NaCl, 4° C., 24 hours
  product concentration: unchanged
[5]; 0.2M NaCl, 4° C., 48 hours, read-out: product concentration
  remaining at 48 h: 91%
[5]; 0.2M NaCl, 4° C., read-out: product concentration
  remaining at 72 h: 88%
[5]; 0.2M NaCl, room temperature, 2 hours, read-out: drop in product concentration
  degraded at 2 h: 1 to 2%
[5]; 0.2M NaCl, room temperature, 24 hours, read-out: product concentration
  remaining at 24 h: 70%
[5]; 0.2M NaCl, room temperature, first ten minutes
  Aqueous stability: no apparent change
[5]; H2O, 4° C., read-out: product concentration
  remaining at 72 h: 90%
[5]; H2O, room temperature, 2 hours
  Aqueous stability: relatively unchanged
[5]; H2O, room temperature, 24 hours, read-out: product concentration
  remaining at 24 h: 56%
[5]; aqueous solution, 4° C.
  stability compared with 2'-MPA salt: significantly more stable than the 2'-MPA salt
[5]; aqueous solution, 4° C., 24 hours
  MPM salt remaining (summary statement): unchanged
[5]; water, aqueous solution, 4° C., read-out: MPM salt remaining (summary statement)
  remaining at 72 h: 88 to 91%
[6]
  solubility compared with paclitaxel: much higher than for paclitaxel

## CC(=O)O[C@H]1C(=O)[C@@]2(C)[C@H]([C@H](OC(=O)c3ccccc3)[C@]3(O)C[C@H](OC(=O)[C@H](O)[C@@H](NC(=O)c4ccccc4)c4ccccc4)C(C)=C1C3(C)C)[C@]1(OC(C)=O)CO[C@@H]1C[C@@H]2O [Paclitaxel, paclitaxel]
[7]
  effectiveness in chemotherapy: effective for chemotherapy for several types of neoplasms including breast
